# In patent US6761911B2 (The United States of America as represented by the …, priority 1999, dated 2004):
# Legend:
# culturable anaerobes = assay: Most probable number of culturable anaerobes in ruminal fluid incubated with chlorate; format: cell-based; details: 5 mM sodium chlorate, anaerobic, 39° C.
# E. coli = assay: Intraruminal sodium chlorate in cattle: ruminal and fecal E. coli viable cell counts on MacConkey agar; format: in vivo; details: for Mean ± SD (n = 2) fecal EC concentration / Mean ± SD (n = 2) ruminal EC concentration: treated (30 mM sodium chlorate intraruminally)
# Experimental: Concentrations of E. coli in the ruminal contents and in feces collected from the test animals were determined by viable cell counts on MacConkey agar plates.
smiles,measurement,setting,value
"[O-][Cl+2]([O-])O [chlorate, sodium chlorate]",effect on the most probable number of culturable anaerobes,culturable anaerobes,little effect
same,decrease in ruminal E. coli concentration,"E. coli; fasted and non-fasted, 30 mM sodium chlorate, after 24 hours (compared with 10 hours)",significantly greater
same,change of ruminal E. coli concentrations from prechlorate levels,"E. coli; fasted and non-fasted, 30 mM sodium chlorate, by 10 hours after chlorate administration",decreased only slightly
same,Mean ± SD (n = 2) fecal EC concentration,"E. coli; fasted, 0 h post treatment",5.29 ± 0.24 log base 10 CFU/g
same,Mean ± SD (n = 2) ruminal EC concentration,"E. coli; fasted, 0 h post treatment",3.62 ± 2.29 log base 10 CFU/g
same,Mean ± SD (n = 2) ruminal EC concentration,"E. coli; fasted, 10 h post treatment",3.27 ± 3.21 log base 10 CFU/g
same,Mean ± SD (n = 2) fecal EC concentration,"E. coli; fasted, 24 h post treatment",2.33 ± 1.24 log base 10 CFU/g
same,Mean ± SD (n = 2) ruminal EC concentration,"E. coli; fasted, 24 h post treatment",2.40 ± 0.20 log base 10 CFU/g
same,Mean ± SD (n = 2) fecal EC concentration,"E. coli; nonfasted, 0 h post treatment",5.19 ± 1.68 log base 10 CFU/g
same,Mean ± SD (n = 2) ruminal EC concentration,"E. coli; nonfasted, 0 h post treatment",3.66 ± 1.76 log base 10 CFU/g
same,Mean ± SD (n = 2) ruminal EC concentration,"E. coli; nonfasted, 10 h post treatment",2.22 ± 3.14 log base 10 CFU/g
same,Mean ± SD (n = 2) fecal EC concentration,"E. coli; nonfasted, 24 h post treatment",2.65 ± 1.91 log base 10 CFU/g
same,Mean ± SD (n = 2) ruminal EC concentration,"E. coli; nonfasted, 24 h post treatment",2.28 ± 1.38 log base 10 CFU/g
